# Values of other authors in patent EP0271041A2, “Atrial peptide derivatives” (ABBOTT LABORATORIES, priority 1986, dated 1988).
# Bridges are numbered along the chain shown (N, C = ends). Where no end group is shown, it is not given here.
# Details: relative to furosemide
substance,measurement,value
"alpha-human atrial natriuretic polypeptide (SLRRSSCFGGRMDRIGAQSGLGCNSFRY; disulfide 7-23 (inferred); ends not checked; UniProt P01160 124-151, looked up) [alpha-hANP, polypeptide consisting of 28 amino acids isolated from human atrium]","diuretic action, times as strong as that of furosemide",about 1000 times
